Assay [1] addresses T1, Sigma non-opioid intracellular receptor 1 (Rattus norvegicus, UniProt Q9R0C9). The assay is described as follows: Displacement of [125I]IACoc from sigma 1 receptor in rat liver microsomes.
Assay [2] concerns the target T2, Sigma non-opioid intracellular receptor 1 (Homo sapiens, UniProt Q99720). Description: Displacement of [125I]N-IACoc from sigma 1 receptor (unknown origin). (In general: Loss of bound radioactivity is the signal in a displacement assay; it reports binding, not function.)
For assay [3], the target named is T2, Sigma non-opioid intracellular receptor 1. The assay is described as follows: Displacement of [125I]N-IAC44 from sigma 1 receptor (unknown origin).
The target of assay [4] is T1, Sigma non-opioid intracellular receptor 1. Description: Displacement of [3H]-(+)-pentazocine from sigma 1 receptor in rat liver homogenates. The format is tissue-based.

By Ki is commonly meant the equilibrium dissociation constant of an inhibitor or competing ligand from its target. High values mean lower affinity, low ones higher affinity. Broadly, the Kd is the concentration at which binding is half-saturated. A lower Kd goes with higher affinity.

T1 sequence (Q9R0C9 whole entry): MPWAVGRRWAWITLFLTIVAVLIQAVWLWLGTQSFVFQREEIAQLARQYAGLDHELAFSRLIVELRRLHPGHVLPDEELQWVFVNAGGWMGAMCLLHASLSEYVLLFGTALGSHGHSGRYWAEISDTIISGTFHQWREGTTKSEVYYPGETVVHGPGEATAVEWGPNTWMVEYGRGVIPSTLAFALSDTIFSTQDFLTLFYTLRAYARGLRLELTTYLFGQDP
T2 sequence (Q99720 whole entry): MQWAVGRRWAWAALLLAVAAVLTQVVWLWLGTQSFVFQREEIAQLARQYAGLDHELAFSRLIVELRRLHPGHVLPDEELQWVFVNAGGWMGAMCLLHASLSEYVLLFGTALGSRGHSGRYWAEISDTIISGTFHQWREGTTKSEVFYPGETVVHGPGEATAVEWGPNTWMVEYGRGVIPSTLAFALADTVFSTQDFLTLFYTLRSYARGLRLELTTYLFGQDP

Compound `COC(=O)[C@H]1[C@@H](OC(=O)c2ccc(N=[N+]=[N-])c([125I])c2)C[C@@H]2CC[C@H]1N2C` showed a Ki in assay [1] of 0.126 nM. That is a sub-nanomolar value.
Turning to `COC(=O)[C@H]1[C@@H](OC(=O)c2ccccc2)C[C@@H]2CC[C@H]1N2CCc1ccc(N=[N+]=[N-])c([125I])c1`, the equilibrium dissociation constant (Kd) in assay [2] was 11 nM. That is a double-digit nanomolar value.
`CCCN(CCCc1ccccc1)CCc1ccc(N=[N+]=[N-])c([125I])c1` gave a Kd in assay [3] of 7.2 nM.
In assay [4], `CN(C)CCc1c[nH]c2ccccc12` [N,N-DIMETHYLTRYPTAMINE] registered a Ki of 15400 nM. That is a double-digit micromolar value.

Source of the values: ChEMBL document CHEMBL3102847, “Structure of the σ1 receptor and its ligand binding site” (J Med Chem, 2013).
